This is an account of results in ChEMBL document CHEMBL5053547, “Targeting of the FOXM1 Oncoprotein by E3 Ligase-Assisted Degradation” (J Med Chem, 2021).

Activity calls are given as the source filed them. The rule behind the calls is not given here. Some results are limits rather than exact numbers.

The test system of data set [1] is MDA-MB-231. Description: Antiproliferative activity against human MDA-MB-231 cells assessed as growth inhibition by MTT assay. Type of data set: functional.
The subject of data set [2] is MDA-MB-231. Nature of the data set: Downregulation of CDC25B expression in human MDA-MB-231 cells at 20 uM incubated for 16 hrs by Western blot analysis. Type of data set: functional, cell-based.
For data set [3], the system named is MDA-MB-231. Nature of the data set: Downregulation of Cyclin B expression in human MDA-MB-231 cells at 20 uM incubated for 16 hrs by Western blot analysis. Type of data set: functional, cell-based.
Data set [4] relates to MDA-MB-231. Nature of the data set: Reduction in beta-catenin nuclear accumulation in human MDA-MB-231 cells at 20 uM incubated for 16 hrs by Western blot analysis. Type of data set: functional, cell-based.
For data set [5], the system named is MDA-MB-231. Nature of the data set: Induction of cell cycle arrest in human MDA-MB-231 cells assessed as accumulation at S phase at 20 uM incubated for 16 hrs by flow cytometry assay (reference value: 22.19%). The class given is functional.
Data set [6] concerns MDA-MB-231. Nature of the data set: Induction of cell cycle arrest in human MDA-MB-231 cells assessed as accumulation at G0/G1 phase at 20 uM incubated for 16 hrs by flow cytometry assay (reference value: 65.49%). The class given is functional.
Data set [7] deals with MDA-MB-231. Nature of the data set: Induction of cell cycle arrest in human MDA-MB-231 cells assessed as accumulation at G2/M phase at 20 uM incubated for 16 hrs by flow cytometry assay (reference value: 12.30%). The class given is functional.
Another data set relates to Mus musculus. Nature of the data set: Toxicity in mouse xenografted with human MDA-MB-231 cells assessed as change in body weight at 10 mg/kg/day administered through tail vain for 12 consecutive days. The conditions noted are these: in vivo, iv. Type of data set: organism-based.
Data set [8] has as its system MDA-MB-231. Nature of the data set: Antineoplastic effect in human MDA-MB-231 cells xenografted in mouse assessed as reduction in tumor volume at 10 mg/kg/day administered through tail vain for 12 consecutive days. The class given is functional, organism-based. The conditions noted are these: route iv.
The subject of data set [9] is MDA-MB-231. Description: Anti-invasive activity against human MDA-MB-231 cells assessed as increase in E-cadherin mRNA expression incubated for 16 hrs by qRT-PCR analysis. Type of data set: functional, cell-based. Conditions: dose 10-20 µM.
The test system of data set [10] is MDA-MB-231. Description: Anti-invasive activity against human MDA-MB-231 cells assessed as reduction invasion incubated by transwell assay. Type of data set: functional, cell-based. Conditions: dose 10-20 µM.
In data set [11] the test system is MDA-MB-231. Nature of the data set: Reduction in FOXM1 expression in mouse xenografted with human MDA-MB-231 cells at 10 mg/kg/day administered through tail vain for 12 consecutive days by Western blot analysis. Conditions: route iv. The class given is functional, organism-based.
In data set [12] the test system is MDA-MB-231. Nature of the data set: Antitumor activity against human MDA-MB-231 cells xenografted in mouse assessed as tumor shrinkage at 10 mg/kg/day administered through tail vain for 12 consecutive days by H and E staining based histological analysis. The class given is functional, organism-based. Conditions: route iv.
For data set [13], the system named is MDA-MB-231. Description: Anti-invasive activity against human MDA-MB-231 cells assessed as reduction migration incubated by transwell assay. The conditions noted are these: dose 10-20 µM. The class given is functional, cell-based.
A further data set deals with MCF7. Nature of the data set: Antiproliferative activity against human MCF7 cells assessed as cell viability measured at 10 uM. The class given is functional, cell-based.
The nature of data set [14]: Stability in human plasma assessed as half life by LC/MS analysis. The class given is ADME, cell-free.
Data set [15] in a line: Stability in rat plasma assessed as half life by LC/MS analysis. The class given is ADME, cell-free.
The subject of data set [16] is MDA-MB-231. Description: Antitumor activity against human MDA-MB-231 cells xenografted in mouse assessed as […] by measuring Ki67 labelling at 10 mg/kg/day administered through tail vain for 12 consecutive days by immunohistochemical analysis. Type of data set: functional, organism-based. The conditions noted are these: route iv.
Data set [17] has as its system MDA-MB-231. Nature of the data set: Anti-invasive activity against human MDA-MB-231 cells assessed as decrease in Slug gene expression incubated for 16 hrs by qRT-PCR analysis. The class given is functional, cell-based. The conditions noted are these: dose 10-20 µM.
For data set [18], the system named is MDA-MB-231. Nature of the data set: In vivo antitumor activity against human MDA-MB-231 cells xenografted in mouse assessed as tumor growth inhibition at 10 mg/kg/day administered through tail vain for 12 consecutive days. Conditions: route iv, read-out: TGI. Type of data set: functional.
For data set [19], the system named is MDA-MB-231. Description: Anti-invasive activity against human MDA-MB-231 cells assessed as decrease in Vimentin gene expression incubated for 16 hrs by qRT-PCR analysis. The class given is functional, cell-based. The conditions noted are these: dose 10-20 µM.
A short description of data set [20]: Stability in mouse plasma assessed as half life by LC/MS analysis. The class given is ADME, cell-free.
The next data set concerns MCF-10A. Nature of the data set: Cytotoxicity against human MCF-10A cells assessed as cell viability measured upto 30 uM. The class given is cell-based.
Data set [21] relates to MDA-MB-231. Nature of the data set: Anti-invasive activity against human MDA-MB-231 cells assessed as decrease in MMP2 gene expression incubated for 16 hrs by qRT-PCR analysis. The class given is functional, cell-based. The conditions noted are these: dose 10-20 µM.
The test system of data set [22] is MDA-MB-231. Nature of the data set: Anti-invasive activity against human MDA-MB-231 cells assessed as decrease in Snail gene expression incubated for 16 hrs by qRT-PCR analysis. The class given is functional, cell-based. The conditions noted are these: dose 10-20 µM.
A further data set addresses T1, Forkhead box protein M1 (Homo sapiens, UniProt Q08050).
T1 sequence (Q08050 whole entry): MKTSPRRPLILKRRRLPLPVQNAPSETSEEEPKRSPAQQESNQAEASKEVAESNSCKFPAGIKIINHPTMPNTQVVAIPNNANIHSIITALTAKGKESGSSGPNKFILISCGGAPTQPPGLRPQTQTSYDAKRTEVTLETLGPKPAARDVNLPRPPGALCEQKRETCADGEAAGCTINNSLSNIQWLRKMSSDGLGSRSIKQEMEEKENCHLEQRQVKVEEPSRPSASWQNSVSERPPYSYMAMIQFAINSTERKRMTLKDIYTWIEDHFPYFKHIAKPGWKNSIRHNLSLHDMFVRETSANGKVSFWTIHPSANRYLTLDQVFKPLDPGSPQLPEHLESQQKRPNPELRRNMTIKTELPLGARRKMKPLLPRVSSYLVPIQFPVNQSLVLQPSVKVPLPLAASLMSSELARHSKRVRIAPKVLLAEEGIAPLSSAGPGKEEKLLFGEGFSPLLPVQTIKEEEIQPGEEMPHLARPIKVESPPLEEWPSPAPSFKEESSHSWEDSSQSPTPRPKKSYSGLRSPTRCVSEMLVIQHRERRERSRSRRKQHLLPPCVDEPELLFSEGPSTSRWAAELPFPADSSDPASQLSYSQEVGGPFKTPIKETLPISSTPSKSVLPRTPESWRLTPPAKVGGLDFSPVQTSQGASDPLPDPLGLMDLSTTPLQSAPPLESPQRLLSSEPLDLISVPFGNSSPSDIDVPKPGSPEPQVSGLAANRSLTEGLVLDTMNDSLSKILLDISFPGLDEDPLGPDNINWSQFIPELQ
Description: Inhibition of recombinant FOXM1-DBD (unknown origin) binding to DNA measured after 30 mins by biochemical EMSA assay.

In the case of `Nc1c(C(=O)Nc2ccc(F)cc2)sc2nc(-c3ccc(OCC(=O)NCCCNC(=O)COc4cccc5c4C(=O)N(C4CCC(=O)NC4=O)C5=O)cc3)cc(C(F)(F)F)c12` (centres undefined), the concentration for 50% growth inhibition (GI50) in the data set with MDA-MB-231 [1] stood at 17.4 µM.
The same measure, in the same setting: next, `COc1ccc(-c2cc(C(F)(F)F)c3c(N)c(C(=O)Nc4ccc(F)cc4)sc3n2)cc1`: 27.3 µM; `Nc1c(C(=O)Nc2ccc(F)cc2)sc2nc(-c3ccc(OCC(=O)NCCCCCCCCNC(=O)COc4cccc5c4C(=O)N(C4CCC(=O)NC4=O)C5=O)cc3)cc(C(F)(F)F)c12` (centres undefined): 38.6 µM; `Nc1c(C(=O)Nc2ccc(F)cc2)sc2nc(-c3ccc(OCC(=O)NCCOCCOCCNC(=O)COc4cccc5c4C(=O)N(C4CCC(=O)NC4=O)C5=O)cc3)cc(C(F)(F)F)c12` (centres undefined): 19.5 µM.
In the case of `CN1C(=O)CCC(N2C(=O)c3cccc(OCC(=O)NCCCOCCOCCOCCCNC(=O)COc4ccc(-c5cc(C(F)(F)F)c6c(N)c(C(=O)Nc7ccc(F)cc7)sc6n5)cc4)c3C2=O)C1=O` (centres undefined), the result with MDA-MB-231 [2], with MDA-MB-231 [3] and in the data set on MDA-MB-231 [4] was inactive. For the same molecule, the Activity in the data set on MDA-MB-231 [5] came out at 24.35%; in the data set on MDA-MB-231 [6], 57.44%; in the data set on MDA-MB-231 [7] it was 18.2%.
Consider `Nc1c(C(=O)Nc2ccc(F)cc2)sc2nc(-c3ccc(OCC(=O)NCCOCCOCCNc4cccc5c4C(=O)N(C4CCC(=O)NC4=O)C5=O)cc3)cc(C(F)(F)F)c12` (centres undefined), for which the GI50 in the data set with MDA-MB-231 [1] was greater than 50 µM.
On the same count and under the same terms, next, `Nc1c(C(=O)Nc2ccc(F)cc2)sc2nc(-c3ccc(OCC(=O)NCCCNc4cccc5c4C(=O)N(C4CCC(=O)NC4=O)C5=O)cc3)cc(C(F)(F)F)c12` (centres undefined): 45.4 µM; `Nc1c(C(=O)Nc2ccc(F)cc2)sc2nc(-c3ccc(OCC(=O)NCCCCCCCCNc4cccc5c4C(=O)N(C4CCC(=O)NC4=O)C5=O)cc3)cc(C(F)(F)F)c12` (centres undefined): greater than 50 µM.
Same read-out and setting: next, `Nc1c(C(=O)Nc2ccc(F)cc2)sc2nc(-c3ccc(OCC(=O)NCCCOCCOCCOCCCNc4cccc5c4C(=O)N(C4CCC(=O)NC4=O)C5=O)cc3)cc(C(F)(F)F)c12` (centres undefined): greater than 50 µM.
For the molecule `Nc1c(C(=O)Nc2ccc(F)cc2)sc2nc(-c3ccc(OCC(=O)NCCCOCCOCCOCCCNC(=O)COc4cccc5c4C(=O)N(C4CCC(=O)NC4=O)C5=O)cc3)cc(C(F)(F)F)c12` (centres undefined), the Activity result was “Non-Toxic” in the data set with Mus musculus; “Dose-dependent effect” in the data set with MDA-MB-231 [9]; “Dose-dependent effect” with MDA-MB-231 [10]; “Dose-dependent effect” in the data set with MDA-MB-231 [13]; “Dose-dependent effect” with MDA-MB-231 [17]; “Dose-dependent effect” with MDA-MB-231 [19]. The Activity result in the data set with MCF-10A was “Non-Toxic”; with MDA-MB-231 [5], 21.75%; with MDA-MB-231 [21], “Dose-dependent effect”; with MDA-MB-231 [6], 57.92%; with MDA-MB-231 [22] it was “Dose-dependent effect”; in the data set on MDA-MB-231 [7], 20%. The outcome in the data set on MDA-MB-231 [8], in the data set with MDA-MB-231 [2], with MDA-MB-231 [11], in the data set on MDA-MB-231 [12], in the data set on MDA-MB-231 [3] and in the data set with MCF7 was Active. The result in the data set on MDA-MB-231 [4] and in the data set with MDA-MB-231 [16] was Active. Moreover, the half-life in data set [14] is 104 min; in data set [15] it was 35.3 min; in [20] it was greater than 120 min. For the same molecule, the 50% growth inhibitory concentration (GI50) with MDA-MB-231 [1] stood at 16.2 µM. In the data set on MDA-MB-231 [18], the inhibition in vivo at 10 mg/kg/day was found to be 78.2%.
For `Nc1c(C(=O)Nc2ccc(F)cc2)sc2nc(-c3cccs3)cc(C(F)(F)F)c12`, the IC50 at Forkhead box protein M1 is 28.4 µM. The outcome in the data set on MDA-MB-231 [11], in the data set on MDA-MB-231 [12] and in the data set with MDA-MB-231 [16] was Active. The GI50 in the data set on MDA-MB-231 [1] was determined as 25.6 µM. The outcome in the data set on MDA-MB-231 [4] was inactive. Further, the inhibition in vivo at 10 mg/kg/day in the data set with MDA-MB-231 [18] amounted to 47.8%. Further, the Activity with MDA-MB-231 [5] worked out at 16.17%; in the data set with MDA-MB-231 [6], 57.52%; in the data set with MDA-MB-231 [7] it was 16.32%.
